Data published in patent US20230321127A1, “SPERM MOTILITY IMPROVING AGENT AND SPERM MOTILITY IMPROVING METHOD” (MIRAILAB BIOSCIENCE INC., priority 2020, published 2023).

System: swine sperms
Test: Swine sperm motility analyzed by CASA during incubation with NMN alone or NMN+PQQ
Format: cell-based
Procedure: Upon arrival of a pack containing swine diluted semen (sperm concentration (total sperm count) 30,000,000/ml, HIRO-SWINE B solution (HIROSHIMA CRYO-PRESERVATION SERVICE) was used as a diluent) provided by Oita Prefectural Agriculture, Forestry and Fisheries Research Center, the pack was immediately stored in an incubator at 15° C. The next day, 5 ml of the above semen from each pack was transferred to a 15 ml centrifuge tube, NMN was added to concentrations from 0.1 to 100 μM (0.1 μM, 1 μM, 10 μM, 100 μM) using HIRO-SWINE B solution as a culture medium, and they were incubated at 37° C. for up to 6 hours. For some diluted semen, pyrrolo-quinoline quinone (PQQ) (MITSUBISHI GAS CHEMICAL COMPANY, INC) was added to a concentration of 100 nM, in addition to NMN or without the addition of NMN, and it was incubated in the same manner. Sperms were taken out at 0, 2, 4, and 6 hours after the start of incubation, and their sperm motility was analyzed using CASA (HT CASA-Ceros II (product name), Hamilton Thorne, Inc.). […] The error bars in FIG. 2 represent standard errors. Sperm motion loci were also photographed by phase contrast microscopy at 2, 4, and 6 hours after the start of incubation and the photographs were shown in FIG. 3.

[1] = NMN alone addition zone (PQQ-), 0.1-100 μM, effect observed up to 4 hours later
[2] = NMN alone addition zone, 6 hours later

NC(=O)c1ccc[n+]([C@@H]2O[C@H](COP(=O)([O-])O)[C@@H](O)[C@H]2O)c1 [NMN, nicotinamide mononucleotide]
total moment (proportion of sperms in motion to total sperms counted) (NMN 0.1-100 μM added to swine diluted semen, 37° C., up to 6 hours): not affected | straight (forward) moment [1]: significantly increased | straight (forward) speed [1]: significantly increased | improving effect on the straight moment [2]: disappeared | improving effect on the straight speed [2]: disappeared
